Patent US20240150301A1, “METHODS OF MODULATING ANDROGEN RECEPTOR CONDENSATES” (ETERN BIOPHARMA (SHANGHAI) CO., LTD., priority 2021, published 2024)
“Also recorded” adds a separate entry of the source.

How the values were obtained:
AR V7 = biological target: T1, AR V7 (Homo sapiens, UniProt P10275); assay: Live-cell imaging of AR puncta (LLPS) in LNCaP cells, AR V7-mEGFP; type: cell-based; parameters: expressed in transfected cells; host or cells: LNCaP; settings: 10 μM compound, no DHT
T1 sequence (P10275 1-644 isoform P10275-3): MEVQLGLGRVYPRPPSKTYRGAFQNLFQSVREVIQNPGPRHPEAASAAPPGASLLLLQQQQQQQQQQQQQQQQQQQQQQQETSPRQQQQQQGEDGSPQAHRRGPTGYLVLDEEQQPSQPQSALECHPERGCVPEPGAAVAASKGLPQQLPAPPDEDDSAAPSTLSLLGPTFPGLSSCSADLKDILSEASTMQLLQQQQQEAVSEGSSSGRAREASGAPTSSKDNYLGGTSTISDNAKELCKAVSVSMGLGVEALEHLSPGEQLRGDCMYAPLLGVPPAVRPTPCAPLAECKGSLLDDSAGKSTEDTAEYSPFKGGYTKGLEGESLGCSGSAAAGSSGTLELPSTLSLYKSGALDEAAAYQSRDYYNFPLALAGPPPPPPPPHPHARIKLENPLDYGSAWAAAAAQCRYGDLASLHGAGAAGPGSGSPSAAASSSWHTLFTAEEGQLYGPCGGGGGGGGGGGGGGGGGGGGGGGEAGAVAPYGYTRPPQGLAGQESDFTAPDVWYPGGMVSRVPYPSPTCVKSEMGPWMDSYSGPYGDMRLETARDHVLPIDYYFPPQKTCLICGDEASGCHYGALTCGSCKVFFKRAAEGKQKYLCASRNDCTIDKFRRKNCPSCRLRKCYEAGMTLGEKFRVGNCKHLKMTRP
Protocol: Cells were grown on 24-well glass bottom plate (Cellvis, P24-1.5H-N) and images were taken with the Leica TCS SP8 confocal microscopy system using a 100× oil objective (NA=1.4). Cells were imaged on a heated stage (37° C.) and supplemented with warmed (37° C.) humidified air. The microscope was enclosed in an incubation chamber heated to 37° C.
For compounds treatment assay, LNCaP cells were transfected with an expression vector for AR (AR or AR F877L/T878A)-mEGFP using steroid hormone-free and phenol red-free RPMI media for 24 hours before compound treatment. After 10 μM compounds treatment for 3 hour, LNCaP cells were added with 1 nM DHT. For ligand-independent AR V7-mEGFP expressing LNCaP cells, starvation step is skipped and compounds were added 12 hours after transfection. The final concentration of DMSO was 0.1%. Cells were subjected to microscopic observation every 30 mins after DHT/compounds were added.
Data was analyzed by images collected from 100 representative fields in each group. The spots quantification was performed based on the area and intensity of the spots through green (AR-mEGFP) channel. Fluorescent images were processed and assembled into figures using LAS X (Leica) and Fiji.
After 10 μM compounds treatment for 3 hour, LNCaP cells were added with 1 nM DHT. […]

VCaP cells = assay: Cell proliferation assay (CellTiter-Glo), VCaP; type: cell-based; settings: Homo sapiens, 96 h, 4 days, read-out: VCaP IC50 AR-positive, AR-V7 positive (cell proliferation)
Protocol: To evaluate the effect of exemplary compounds on proliferation of AR/AR-V7-dependent prostate cancer cells, cell viability assay was performed in LNCaP (AR-positive), 22Rv1 (AR-positive; AR-V7 positive), VCaP (AR-positive; AR-V7 positive), and DU145 (AR-negative) cells, respectively.
LNCaP cells were seeded in charcoal stripped FBS/phenol red-free RPMI medium in 96-well plates for 24 h before pretreating for 1 h with test compounds prior to addition of 0.2 nM DHT for 4 days. 22Rv1 or VCaP cells were cultured in charcoal stripped FBS/phenol red-free RPMI medium for 24 h before addition of test compounds for 4 days. DU145 cells were seeded in complete medium for 24 h before addition of test compounds for 4 days. Cell proliferation was measured with CellTiter-Glo® Luminescent Cell Viability Assay (Promega). In LNCaP cells, DHT-dependent cell growth is calculated by measuring the difference between vehicle control (DMSO) cells treated with or without 0.2 nM DHT. The IC50 values were determined using the four parameter fit via GraphPad Prism graphing software.

| IC50 (VCaP cells) [µM] | SMILES | puncta formation / LLPS of AR V7 (AR V7) |
| --- | --- | --- |
| – | CC(C)(c1ccc(C#Cc2cnc(NS(C)(=O)=O)nc2)cc1)c1cc(Cl)c(OCCCl)c(C#N)c1 [Compound 60, N-(5-((4-(2-(3-chloro-4-(2-chloroethoxy)-5-cyanophenyl)propan-2-yl)phenyl)ethynyl)pyrimidin-2-yl)methanesulfonamide] | could suppress the phase separation; also recorded: abolished the puncta formation; also recorded: significantly impaired the LLPS |
| > 20 | CC(C)(c1ccc(OCc2ccnc(NS(C)(=O)=O)n2)cc1)c1cc(Cl)c(OCCCl)c(C#N)c1 [Compound AA, N-(4-((4-(2-(3-chloro-4-(2-chloroethoxy)-5-cyanophenyl)propan-2-yl)phenoxy)methyl)pyrimidin-2-yl) methane sulfonamide, reference compound] | – |
